These results are taken from patent US10329260B2, “Human plasma kallikrein inhibitors” (BioCryst Pharmaceuticals, Inc., priority 2014, dated 2019).

The target in the assay is human plasma kallikrein (Homo sapiens (Human), UniProt P03952). The assay is described as follows: Plasma Kallikrein Activity Assay. The format is biochemical. Particulars: 2 nM kallikrein, 80 μM chromogenic substrate S2302, 30° C., pH 7.8; Ki by Cheng-Prusoff equation.
Chain of human plasma kallikrein (P03952 whole entry partner, looked up): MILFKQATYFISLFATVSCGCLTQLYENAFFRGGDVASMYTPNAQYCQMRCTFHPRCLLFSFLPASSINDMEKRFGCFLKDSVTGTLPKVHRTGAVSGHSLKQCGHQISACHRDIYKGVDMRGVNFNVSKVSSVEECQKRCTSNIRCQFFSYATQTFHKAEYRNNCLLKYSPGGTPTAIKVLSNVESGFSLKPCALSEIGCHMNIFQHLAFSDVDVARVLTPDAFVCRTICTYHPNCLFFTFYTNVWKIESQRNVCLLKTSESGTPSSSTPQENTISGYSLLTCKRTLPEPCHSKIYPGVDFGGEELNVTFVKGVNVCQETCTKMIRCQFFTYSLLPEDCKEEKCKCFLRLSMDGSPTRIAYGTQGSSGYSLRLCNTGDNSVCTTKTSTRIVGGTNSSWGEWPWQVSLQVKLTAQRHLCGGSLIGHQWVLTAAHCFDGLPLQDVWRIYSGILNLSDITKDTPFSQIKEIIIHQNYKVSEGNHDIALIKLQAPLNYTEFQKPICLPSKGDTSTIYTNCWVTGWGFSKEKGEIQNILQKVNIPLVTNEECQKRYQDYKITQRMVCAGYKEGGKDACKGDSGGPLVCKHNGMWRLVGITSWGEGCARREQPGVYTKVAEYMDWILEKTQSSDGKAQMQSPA
Chain of human plasma kallikrein (P03952 whole entry, looked up): as the sequence (P03952 whole entry partner, looked up) above
Method: The effect of compounds of the invention on human plasma kallikrein activity was determined using the chromogenic substrates (DiaPharma Group, Inc., West Chester, Ohio, USA). In these experiments, 2 nM kallikrein (Enzyme Research Laboratories, South Bend, Ind., USA) was incubated with 80 μM S2302 (H-D-Pro-Phe-Arg-p-nitroaniline) in the absence or presence of increasing concentrations of compounds of the invention in a final volume of 200 μL Tris-HCl buffer (200 mM NaCl; 2.5 mM CaCl2; 50 mM Tris-HCl, pH 7.8).
Data were analyzed using SigmaPlot software (Systat Software, Inc., San Jose, Calif., USA) (Four Parameter Logistic Curve).
For orientation: Ki means the equilibrium dissociation constant of an inhibitor or competing ligand from its target. Read a high Ki as weaker binding. The molecule `NCc1cccc(-n2nc(C(F)(F)F)cc2C(=O)Nc2ccc(F)c(C(OCC3CC3)c3ccccc3)c2)c1` (centres unmarked) [Compound 76h, 1-(3-(aminomethyl)phenyl)-N-(3-((cyclopropylmethoxy)(phenyl)methyl)-4-fluorophenyl)-3-(trifluoromethyl)-1H-pyrazole-5-carboxamide] registered a Ki above 100 nM.
`CC(C)[C@H](N)C(=O)OC(c1ccccc1)c1cccc(NC(=O)c2cc(C(F)(F)F)nn2-c2cccc(CN)c2)c1` (stereo partly drawn) [Compound 81c, (2S)-(3-(1-(3-(aminomethyl)phenyl)-3-(trifluoromethyl)-1H-pyrazole-5-carboxamido)phenyl)(phenyl)methyl 2-amino-3-methylbutanoate] returned a Ki above 100 nM.
For `NCc1cccc(-n2nc(C(F)(F)F)cc2C(=O)Nc2c(F)cccc2C(O)c2ccccc2)c1` (centres unmarked) [Compound 90f, 1-(3-(aminomethyl)phenyl)-N-(2-fluoro-6-(hydroxy(phenyl)methyl)phenyl)-3-(trifluoromethyl)-1H-pyrazole-5-carboxamide], the Ki was above 100 nM.
For `NCc1cccc(-n2nc(C(F)(F)F)cc2C(=O)Nc2cccc(C(CCC3CC3)N3CCOCC3)c2)c1` (centres unmarked) [Compound 93b, 1-(3-(aminomethyl)phenyl)-N-(3-(3-cyclopropyl-1-morpholinopropyl)phenyl)-3-(trifluoromethyl)-1H-pyrazole-5-carboxamide] the value was above 100 nM; for `NCc1cccc(-n2nc(C(F)(F)F)cc2C(=O)Nc2cc(F)cc(C(O)c3ccccc3)c2)c1` (centres unmarked) [Compound 97f, 1-(3-(aminomethyl)phenyl)-N-(3-fluoro-5-(hydroxy(phenyl)methyl)phenyl)-3-(trifluoromethyl)-1H-pyrazole-5-carboxamide], above 100 nM; for `NCc1cccc(-n2nc(C(F)(F)F)cc2C(=O)Nc2cccc(Cc3ccc(O)cc3)c2)c1` [Compound 136a, 1-(3-(Aminomethyl)phenyl)-N-(3-(4-hydroxybenzyl)phenyl)-3-(trifluoromethyl)-1H-pyrazole-5-carboxamide], above 100 nM.
Molecule `NCc1cccc(-n2nc(C(F)(F)F)cc2C(=O)Nc2cccc(Cc3cccc(O)c3)c2)c1` [Compound 137b, 1-(3-(aminomethyl)phenyl)-N-(3-(3-hydroxybenzyl)phenyl)-3-(trifluoromethyl)-1H-pyrazole-5-carboxamide] yielded a Ki above 100 nM.
For `NCc1cccc(-n2nc(C(F)(F)F)cc2C(=O)Nc2cccc(C(NCCO)c3ccccc3)c2)c1` (centres unmarked) [Compound 145c, 1-(3-(Aminomethyl)phenyl)-N-(3-((2-hydroxyethylamino)(phenyl)methyl)phenyl)-3-(trifluoromethyl)-1H-pyrazole-5-carboxamide] the value was above 100 nM; for `O=C(Nc1cc(C(O)(CCC2CC2)c2ccccn2)ccc1F)c1cc(C(F)(F)F)nn1-c1ccc(Cl)cc1` (centres unmarked) [Compound 157a, 1-(4-chlorophenyl)-N-(5-(3-cyclopropyl-1-hydroxy-1-(pyridin-2-yl)propyl)-2-fluorophenyl)-3-(trifluoromethyl)-1H-pyrazole-5-carboxamide], above 100 nM; for `O=C(Nc1cc(C(O)(CCC2CC2)c2ccccn2)ccc1F)c1cc(C(F)(F)F)nn1-c1ccc2cc(Cl)ccc2c1` (centres unmarked) [Compound 158a, 1-(6-chloronaphthalen-2-yl)-N-(5-(3-cyclopropyl-1-hydroxy-1-(pyridin-2-yl)propyl)-2-fluorophenyl)-3-(trifluoromethyl)-1H-pyrazole-5-carboxamide], above 100 nM.
For `O=C(Nc1cc(C(O)(CCC2CC2)c2ccccn2)ccc1F)c1cc(C(F)(F)F)nn1-c1ccc(Cl)cn1` (centres unmarked) [Compound 159a, 1-(5-chloropyridin-2-yl)-N-(5-(3-cyclopropyl-1-hydroxy-1-(pyridin-2-yl)propyl)-2-fluorophenyl)-3-(trifluoromethyl)-1H-pyrazole-5-carboxamide] the value was above 100 nM; for `COc1ccc(-n2nc(C(F)(F)F)cc2C(=O)Nc2cc(C(O)(CCC3CC3)c3ccccn3)ccc2F)cc1` (centres unmarked) [Compound 160a, N-(5-(3-cyclopropyl-1-hydroxy-1-(pyridin-2-yl)propyl)-2-fluorophenyl)-1-(4-methoxyphenyl)-3-(trifluoromethyl)-1H-pyrazole-5-carboxamide], above 100 nM.
Turning to `NCc1cccc(-n2nc(C(F)(F)F)cc2C(=O)Nc2cc3c(cc2F)CNCC3)c1` [Compound 161e, 1-(3-(aminomethyl)phenyl)-N-(7-fluoro-1,2,3,4-tetrahydroisoquinolin-6-yl)-3-(trifluoromethyl)-1H-pyrazole-5-carboxamide], the Ki was above 100 nM.
Then `NCc1cccc(-n2nc(C(F)(F)F)cc2C(=O)Nc2ccc3c(c2F)CCNC3)c1` [Compound 162c, 1-(3-(aminomethyl)phenyl)-N-(5-fluoro-1,2,3,4-tetrahydroisoquinolin-6-yl)-3-(trifluoromethyl)-1H-pyrazole-5-carboxamide], with above 100 nM; and `NCc1cccc(-n2nc(C(F)(F)F)cc2C(=O)Nc2cc3c(cc2F)CCNC3)c1` [Compound 163g, 1-(3-(aminomethyl)phenyl)-N-(6-fluoro-1,2,3,4-tetrahydroisoquinolin-7-yl)-3-(trifluoromethyl)-1H-pyrazole-5-carboxamide], with above 100 nM; and `NCc1cccc(-n2nc(C(F)(F)F)cc2C(=O)Nc2cccc(C3OC(=O)Nc4ccccc43)c2)c1` (centres unmarked) [Compound 167f, 1-(3-(aminomethyl)phenyl)-N-(3-(2-oxo-2,4-dihydro-1H-benzo[d] [1,3]oxazin-4-yl)phenyl)-3-(trifluoromethyl)-1H-pyrazole-5-carboxamide], with above 100 nM.
The molecule `NCc1cccc(-n2nc(C(F)(F)F)cc2C(=O)Nc2cccc(C(c3ccccc3)N3CCCC3CO)c2)c1` (centres unmarked) [Compound 169b, 1-(3-(Aminomethyl)phenyl)-N-(3-((2-(hydroxymethyl)pyrrolidin-1-yl)(phenyl)methyl)phenyl)-3-(trifluoromethyl)-1H-pyrazole-5-carboxamide] gave a Ki above 100 nM.
As to `NCc1cccc(-n2nc(C(F)(F)F)cc2C(=O)Nc2cccc(C(c3ccccc3)N3CCC(O)C3)c2)c1` (centres unmarked) [Compound 170b, 1-(3-(Aminomethyl)phenyl)-N-(3-((3-hydroxypyrrolidin-1-yl)(phenyl)methyl)phenyl)-3-(trifluoromethyl)-1H-pyrazole-5-carboxamide], the Ki is above 100 nM.
`NCc1cccc(-n2nc(C(F)(F)F)cc2C(=O)Nc2cccc(C(NC3CCCCCC3)c3ccccc3)c2)c1` (centres unmarked) [Compound 171b, 1-(3-(Aminomethyl)phenyl)-N-(3-((cycloheptylamino)(phenyl)methyl)phenyl)-3-(trifluoromethyl)-1H-pyrazole-5-carboxamide] came in with a Ki above 100 nM.
For `CCCCCNC(c1ccccc1)c1cccc(NC(=O)c2cc(C(F)(F)F)nn2-c2cccc(CN)c2)c1` (centres unmarked) [Compound 172b, 1-(3-(Aminomethyl)phenyl)-N-(3-((pentylamino)(phenyl)methyl)phenyl)-3-(trifluoromethyl)-1H-pyrazole-5-carboxamide] the value was above 100 nM; for `CC(CO)NC(c1ccccc1)c1cccc(NC(=O)c2cc(C(F)(F)F)nn2-c2cccc(CN)c2)c1` (centres unmarked) [Compound 173b, 1-(3-(aminomethyl)phenyl)-N-(3-(((1-hydroxypropan-2-yl)amino)(phenyl)methyl)phenyl)-3-(trifluoromethyl)-1H-pyrazole-5-carboxamide], above 100 nM; for `CC(C)(CO)NC(c1ccccc1)c1cccc(NC(=O)c2cc(C(F)(F)F)nn2-c2cccc(CN)c2)c1` (centres unmarked) [Compound 174b, 1-(3-(aminomethyl)phenyl)-N-(3-(((1-hydroxy-2-methylpropan-2-yl)amino)(phenyl)methyl)phenyl)-3-(trifluoromethyl)-1H-pyrazole-5-carboxamide], above 100 nM.
`NCc1cccc(-n2nc(C(F)(F)F)cc2C(=O)Nc2cccc(C(NCC3CCCO3)c3ccccc3)c2)c1` (centres unmarked) [Compound 175b, 1-(3-(aminomethyl)phenyl)-N-(3-(phenyl(((tetrahydrofuran-2-yl)methyl)amino)methyl)phenyl)-3-(trifluoromethyl)-1H-pyrazole-5-carboxamide] returned a Ki above 100 nM.
Then `CC(C)CCNC(c1ccccc1)c1cccc(NC(=O)c2cc(C(F)(F)F)nn2-c2cccc(CN)c2)c1` (centres unmarked) [Compound 176b, 1-(3-(aminomethyl)phenyl)-N-(3-((isopentylamino)(phenyl)methyl)phenyl)-3-(trifluoromethyl)-1H-pyrazole-5-carboxamide], with above 100 nM.
`CCC(C)CNC(c1ccccc1)c1cccc(NC(=O)c2cc(C(F)(F)F)nn2-c2cccc(CN)c2)c1` (centres unmarked) [Compound 177b, 1-(3-(Aminomethyl)phenyl)-N-(3-(((2-methylbutyl)amino)(phenyl)methyl)phenyl)-3-(trifluoromethyl)-1H-pyrazole-5-carboxamide] registered a Ki above 100 nM.
Then `NCc1cccc(-n2nc(C(F)(F)F)cc2C(=O)Nc2cccc(C(c3ccccc3)N(CCO)CCO)c2)c1` (centres unmarked) [Compound 178b, 1-(3-(aminomethyl)phenyl)-N-(3-((bis(2-hydroxyethyl)amino)(phenyl)methyl)phenyl)-3-(trifluoromethyl)-1H-pyrazole-5-carboxamide], with above 100 nM; and `NCc1cccc(-n2nc(C(F)(F)F)cc2C(=O)Nc2cccc(C(NCc3cccnc3)c3ccccc3)c2)c1` (centres unmarked) [Compound 179b, 1-(3-(Aminomethyl)phenyl)-N-(3-(phenyl((pyridin-3-ylmethyl)amino)methyl)phenyl)-3-(trifluoromethyl)-1H-pyrazole-5-carboxamide], with above 100 nM; and `CCCCNC(c1ccccc1)c1cccc(NC(=O)c2cc(C(F)(F)F)nn2-c2cccc(CN)c2)c1` (centres unmarked) [Compound 180b, 1-(3-(Aminomethyl)phenyl)-N-(3-((butylamino)(phenyl)methyl)phenyl)-3-(trifluoromethyl)-1H-pyrazole-5-carboxamide], with above 100 nM.
For `CC(O)CNC(c1ccccc1)c1cccc(NC(=O)c2cc(C(F)(F)F)nn2-c2cccc(CN)c2)c1` (centres unmarked) [Compound 182b, 1-(3-(aminomethyl)phenyl)-N-(3-(((2-hydroxypropyl)amino)(phenyl)methyl)phenyl)-3-(trifluoromethyl)-1H-pyrazole-5-carboxamide] the value was above 100 nM.
